Measured values reported in patent US20090118135A1, “METHODS AND COMPOUNDS FOR REGULATING APOPTOSIS” (The Burnham Institute, priority 2007, published 2009).
Where “and” joins values, the source holds several entries; their conditions need not be identical. Equal entries are not always repeated. Entries after “also recorded” stand apart in the source; their conditions may differ.

Key:
GST-Hsp70 = GST-Hsp70 (Homo sapiens, UniProt P0DMV8); test: FITC-ATP/GST-Hsp70 fluorescence polarization counter-screen; assay type: binding; conditions: HSP/FITC-ATP counter screen
Description: Dose-response curves were then generated (fluorescent compounds were eliminated), followed by counter-screening using a biologically unrelated FPA (GST-Hsp70/FITC-ATP).
A number of assays were then performed to eliminate non-specific or irreproducible hits (FIG. 21). […] Second, compound dose-response curves were generated using the fluorescence polarization assay. […] Finally, 1D-NMR was used to test the compounds for binding to GST-Bcl-B versus GST (as a negative control) (FIG. 22).

GST-Bcl-B [1] = molecular target: T1, GST-Bcl-B (Homo sapiens, UniProt Q9HD36); test: biochemical
T1 sequence (Q9HD36 1-182 limits assumed): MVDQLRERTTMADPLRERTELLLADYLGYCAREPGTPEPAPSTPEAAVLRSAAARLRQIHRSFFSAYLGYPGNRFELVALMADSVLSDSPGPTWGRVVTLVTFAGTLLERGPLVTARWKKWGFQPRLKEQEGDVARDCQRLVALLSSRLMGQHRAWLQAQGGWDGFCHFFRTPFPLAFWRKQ

GST-Bcl-2 = GST-Bcl-2 (Homo sapiens, UniProt P10415); test: Bcl-2/FITC-TR3 fluorescence polarization competition assay (PBS + Tween-20); conditions: for Bcl-2 H Coefficient: Hill coefficient of Bcl-2 dose-response curve
Description: For the Chembridge screen, IC50s for each compound with respect to the Bcl-B/FITC-TR3 (In Hepes/β-glycerophophate/tween-20) fluorescence polarization and the Bcl-2/FITC-TR3 (In PBS+tween-20) fluorescence polarization assays were identified.
Fluorescence polarization was then measured using an Analyst HT Multi-Mode Plate Reader (LJL Biosystems, Sunnyvale, Calif.).

GST-Bcl-B [2] = molecular target: T1, GST-Bcl-B; test: Bcl-B/FITC-TR3-r8 fluorescence polarization competition (displacement) assay, HTS and dose-response; conditions: Hill coefficient of Bcl-B dose-response curve

Chain of GST-Bcl-2 (P10415 1-218 limits assumed): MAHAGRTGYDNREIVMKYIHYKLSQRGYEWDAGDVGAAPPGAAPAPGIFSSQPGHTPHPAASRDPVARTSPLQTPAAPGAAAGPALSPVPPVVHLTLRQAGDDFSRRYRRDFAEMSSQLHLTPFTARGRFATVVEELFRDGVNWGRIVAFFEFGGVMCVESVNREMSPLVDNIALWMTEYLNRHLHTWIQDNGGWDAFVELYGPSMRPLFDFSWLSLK
Chain of GST-Hsp70 (P0DMV8 whole entry): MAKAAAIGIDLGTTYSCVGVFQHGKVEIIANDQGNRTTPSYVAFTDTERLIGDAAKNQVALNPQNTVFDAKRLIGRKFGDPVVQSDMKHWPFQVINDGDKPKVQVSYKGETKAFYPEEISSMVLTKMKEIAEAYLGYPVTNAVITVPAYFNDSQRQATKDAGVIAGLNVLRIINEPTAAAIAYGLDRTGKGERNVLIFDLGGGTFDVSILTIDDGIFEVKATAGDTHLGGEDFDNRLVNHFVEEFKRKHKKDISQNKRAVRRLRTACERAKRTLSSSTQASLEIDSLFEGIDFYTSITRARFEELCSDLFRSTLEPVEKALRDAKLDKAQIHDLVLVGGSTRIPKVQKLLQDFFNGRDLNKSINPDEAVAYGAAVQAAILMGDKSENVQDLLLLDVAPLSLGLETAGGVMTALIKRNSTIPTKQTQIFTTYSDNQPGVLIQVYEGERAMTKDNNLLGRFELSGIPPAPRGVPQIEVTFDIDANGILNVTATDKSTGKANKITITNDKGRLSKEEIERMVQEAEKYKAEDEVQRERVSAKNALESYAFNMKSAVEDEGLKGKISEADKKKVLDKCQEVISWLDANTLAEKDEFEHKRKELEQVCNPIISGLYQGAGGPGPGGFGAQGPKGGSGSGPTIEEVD

SMILES	HSP70 IC50 (Hill) (GST-Hsp70)	IC50 (GST-Bcl-B [1])	Bcl-2 H Coefficient (GST-Bcl-2)	Bcl-B H Coefficient (GST-Bcl-B [2])	displacement of FITC-TR3-r8 from Bcl-2 (GST-Bcl-2; result in words)
Cc1ccc(C)n1-c1ccc(Cl)cc1C(=O)O [Compound 5950160]	high	0.942 µM	1.457	0.9279	–
O=C(O)c1cccc2c1NC(c1ccc([N+](=O)[O-])cc1)C1CC=CC21 (stereo not shown) [Compound 5585430]	–	5.41 µM	–	1.735	–
Nc1n[nH]c2ncc3cc4ccccc4nc3c12 [Compound 6051011]	–	3.74 µM and 2.89 µM	–	2.36	–
Cc1ccc(C)n1-c1ccccc1C(=O)O [Compound 5959185]	–	0.621 µM	–	2.868	–
COC(=O)C1=C(C)N(C)C(=O)NC1c1cc2c(cc1[N+](=O)[O-])OCO2 (stereo not shown) [Compound 5607960]	–	17.4 µM	–	1.821	–
O=C(O)c1cccc(-c2ccc(/C=N/Nc3ccc([N+](=O)[O-])cn3)o2)c1 [Compound 5908920]	–	9.64 µM	–	0.6738	–
OC1=c2ccccc2=C(O)C12N=Nc1nnc(O)n1N2 [Compound 5627952]	–	25.2 µM and 23.8 µM	1.575	0.9192	–
COc1cc(C2Nc3ccc4ccccc4c3C3=C2C(=O)CC(C)(C)C3)c(Br)cc1O (stereo not shown) [Compound 5660965]	–	13.1 µM	–	1.507	–
CN(C)CC[C@H](CSc1ccccc1)Nc1ccc(S(=O)(=O)NC(=O)c2ccc(N3CCN(Cc4ccccc4-c4ccc(Cl)cc4)CC3)cc2)cc1[N+](=O)[O-] [ABT-737, reference compound]	–	–	–	–	failed to block FITC-TR3-9-r8 peptide binding to Bcl-2; also recorded: did not effectively displace FITC-TR3-r8 from Bcl-2
Cc1ccc(C(=O)c2coc3c2C(=O)C(=O)C(Cl)=C3Cl)cc1 [Compound 5169132]	–	6.17 µM	–	1.432	–
C(=N\c1ccc(/N=C/c2ccccn2)cc1)/c1ccccc1 [Compound 5491977]	–	4.4 µM and 4.39 µM	–	1.819	–
CN(C)c1ccc(NC(=O)/C=C\C(=O)O)cc1 [Compound 5374579]	–	20.4 µM	–	2.167	–
O=C1C(=Cc2cn(Cc3ccc(Cl)cc3)c3ccccc23)C(=O)c2ccccc21 [Compound 5603089]	–	14.4 µM	–	1.917	–
COc1cc(N)ccc1-n1c(C)ccc1C [Compound 5953790]	–	32.9 µM	–	2.719	–
Cc1cc(C)nc(NC(=N)Nc2ccc(N)cc2)n1 [Compound 5805360]	–	5.38 µM	–	1.878	–
O=C(O)c1cccc2c1NC(c1cccc(Cl)c1Cl)C1CC=CC21 (stereo not shown) [Compound 6048905]	–	2.57 µM and 2.67 µM	–	2.809	–
Cc1ccc(C)n1-c1ccc(C(=O)O)c(Cl)c1 [Compound 5956338]	–	9.96 µM	1.653	0.9562	–
O=C(COc1ccc(Cl)cc1Cl)Nc1nnc(-c2ccco2)[nH]1 [Compound 5632817]	–	17.9 µM	1.078	0.9962	–
Cc1ccc(C)n1-c1cc(C(=O)O)cc(C(=O)O)c1 [Compound 5950689]	–	0.542 µM	0.6186	1.032	–
